Structures are written as SMILES.

For data set [1], the system named is Estradiol-17-β and progesterone. Briefly: Hormonal analyses of serum samples (estradiol assay/DPC, Coat-A-Count Progesterone/DPC) in the trial. The format is in vivo. Particulars: six beagle bitches, 3 mg/dog/day for 21 days. As to the method:
(§1) A medical trial was conducted at University of Kuopio with six (6) beagle bitches the average weight of which was 10 kg and the age ranged from 1 year and 1 month to 3 years and 11 months. The dogs were given finrozole at a dose of 3 mg/dog/day from the first day of oestrus signs for 21 days. The development of oestrus signs were followed daily and serum samples collected twice a week. The sexual behaviour of a fertile male and the bitches was recorded. The male was allowed to mount and mate the bitches.
Hormonal analyses were carried out at Swedish University of Agricultural Sciences in the Department of Clinical Chemistry Estradiol-17-β (the modified estradiol assay/DPC) and progesterone (Coat-A-Count Progesterone /DPC) were analysed.

A further data set has as its system beagle bitches. Briefly: Medical trial of oestrus suppression in beagle bitches (oestrus signs, mating behaviour, vaginal cytology, side effects). In kind it is in vivo. Here is the method: as §1
The mark [2] stands for this setting: six beagle bitches, 3 mg/dog/day for 21 days.

In the case of `N#Cc1ccc(C(C(O)Cc2ccc(F)cc2)n2cncn2)cc1` (single isomer, unassigned) [finrozole, 1-[1-(4-cyanophenyl)-3-(4-fluorophenyl)-2-hydroxypropyl]-1,2,4-triazole, diasteroisomer a + d], the “time after starting the treatment during which serum estrogen levels decreased” value in data set [1] was 4 to 13 days. Further, in data set [1] (serum), the Progesterone levels entry was “increased in five bitches of six”. The serum estrogen levels entry in data set [1] (serum samples twice a week) was “decreased in all bitches”. Also, in the data set with beagle bitches (of the four bitches in which oestrus continued, fertile male allowed to mount and mate, 3 mg/dog/day for 21 days), the “bitches mated (oestrus continued)” value is on record as “Three of them were mated”. Moreover, the bitches conceived entry with beagle bitches (of the three mated bitches, 3 mg/dog/day for 21 days) is reported as “two conceived”. Further, in the data set with beagle bitches (setting [2]), the “oestrus signs according to vaginal cytology” value is recorded as “no difference could be detected” and the “side effects during the treatment” value is recorded as “No side effects were seen”. In addition, the Oestrus signs result in the data set with beagle bitches (six beagle bitches, 3 mg/dog/day from the first day of oestrus signs for 21 days) is “disappeared in two bitches of six”.

Values taken from EP1399158B1, “NON-THERAPEUTIC METHOD OF SUPPRESSING OESTRUS IN MAMMALIAN NON-HUMAN ANIMAL” (Vetcare Oy, priority 2001, dated 2002).
